These results are taken from patent US20160017011A1, “PHF20 AND JMJD3 COMPOSITIONS AND METHODS OF USE IN CANCER IMMUNOTHERAPY” (priority 2013, published 2016).

The subject of data set [1] is iPSC colony formation. In words: iPSC colony formation and cell death after MG132 treatment. Type of data set: cell-based. Here is the method:
Mouse iPSCs were generated as previously described (Takahashi et al., 2007a) with some minor modifications. Briefly, MEFs (1-8×10^4/well) were seeded on irradiated-MEFs in a 6-well plate. On the next day, the cells were transduced with an equal amount of lentiviruses expressing the four factors and rtTA. The following day, transduced-MEFs were cultured with mESC medium containing 2 μg/mL Dox for 14 days. Tet-O-4F MEFs were used to generate iPSCs by treating MEFs with Dox in mESC medium. The efficiency of iPSC formation as calculated based on the number of AP positive iPSC colonies and the initial cell number of seeded MEFs. Human iPSCs were generated as previously described (Park et al., 2008).
(§1) Jmjd3-Trim26 is responsible for the enhanced reprogramming efficiency observed in Jmjd3-1-MEFs or in Dox-treated Tet-O-PHF20 MEFs.

Data set [2] relates to PHF20 protein. Description: PHF20 protein amounts after MG132 treatment. It counts as cell-based. The conditions noted are these: even when both Trim26 and Jmjd3 were overexpressed.
Description: as §1

For data set [3], the system named is PHF20938-946-specific CD8+ T cells. In words: Recognition of peptide-pulsed T2 cells by PHF20-specific T cells (IFN-γ release). It counts as cell-based, human. As to conditions: T cells generated from PBMCs of HLA-A2+ healthy donors; FIG. 9A. Here is the method:
(FIG. 9A) PHF20938-946-specific CD8^+ T cells were generated from normal donor PBMCs after in vitro stimulation with PHF20 peptides, and used to determine the recognition of T2 cells loaded with different concentrations of PHF20938-946, peptide, or a control peptide as a negative control. (FIG. 9B) PHF20938-946-specific T cells were cultured alone in medium or co-incubated with HLA-A2^+ PHF20^+ (MCF-7) or HLA-A2^− PHF20^+ (DU4475, MDA-MB-361) breast cancer cell lines. A normal breast epithelial cell line MCF-10A is included as a control. T cell activity was determined by measuring cytokine (IFN-γ) release. (FIG. 9C) PHF20938-946-specific CD8^+ T cells were tested for cytotoxicity against MCF-7 by the LDH assay. HLA-A2 negative PHF20^+ PC3 cells were used as a negative control in the LDH assay. Data are plotted as means t SD. Results are representative of three independent experiments. *P<0.05, **P<0.01, ***P<0.001 versus controls.
Furthermore, PHF20-specific T cells could lyse HLA-A2^+ and PHF20^+ MCF-7 breast cancer cells (FIG. 9C).

Residues, ends and D or L forms follow the SMILES beside them. *: point of attachment. Cbz = O=C(OCc1ccccc1)*

Regarding `CC(C)C[C@@H](C=O)NC(=O)[C@H](CC(C)C)NC(=O)[C@H](CC(C)C)NC(=O)OCc1ccccc1` [MG132] (Cbz-Leu-Leu-Leu-aldehyde), the cell death result in data set [1] (MG132 treatment during reprogramming) was “caused cell death”. For the same compound, the iPSC colony formation result in data set [1] (after MG132 treatment) is “no iPSC colony formation was observed”. Besides, in data set [2], the “amounts of PHF20 protein” value was “increased the amounts of PHF20 protein”.
As to WQFNLLTHV (PHFP 2), in data set [3], the “recognition of peptide-pulsed cells by PHF20-specific T cells” value is on record as “capable of recognizing”.
